Measurements: patent US20140088045A1, “PRODUCT COMPRISING A NICOTINE-CONTAINING MATERIAL AND AN ANTI-CANCER AGENT” (priority 2012, published 2014)

What was measured:
[1] = Aerosolization of compounds added to smoking tobacco (filter capture, HPLC); assay type: physicochemical; conditions: lit cigarette, alone or mixed with erlotinib
Source text: We used an experimental system that recapitulates the essential features of the act of smoking (FIG. 8). In this apparatus, smoke from the lit cigarette was drawn through the tubing of the apparatus by external suction. […] The aerosolized test drug was deposited onto this filter. At the conclusion of the study, the filter was removed and the deposited test drug was extracted with acetonitrile and subjected to HPLC analysis, as already described.
FIG. 8. depicts the apparatus for the aerosolization of anticancer compounds. Upper panel: The test compound is added to the cigarette. […] When the system was turned on, the temperature in the heating chamber reached ˜200° C. Heating energy was provided by the battery through a resistance wire inside the heating chamber. Unimpeded flow of the gas phase in the ceramic chamber was allowed by its design; the arrows depict such flow.

[2] = Pharmacokinetic parameters after inhalational administration (HPLC, lung and plasma); conditions: after 8 min inhalation of PS V
Description: (§1) After 8 min of inhalation treatment, BALB/c nude mice were euthanized at various time points. Drug levels were analyzed by HPLC in plasma and lung tissues.

inflammation = conditions: applied systemically or topically; cited from earlier work
[3] = tested on: A549 human lung cancer cells; assay: A549 subcutaneous xenografts, PS V and erlotinib; assay type: in vivo, nude mice; conditions: by day 14; PS V 80 mg/kg ip, erlotinib 75 mg/kg po, 6 days/week; starting tumor volume subtracted
Source text: TO this end, we inoculated A549 human lung cancer cells subcutaneously into nude mice, following standard protocols.

A549 xenografts = assay: A549 subcutaneous xenografts, PS V and curcumin; assay type: in vivo, female nude mice; conditions: for inhibition of tumor growth (in words): A549 xenografts, daily treatment to day 36; for reduction in tumor weight: end of study, vs control
Description: Polymeric nanoparticles of poly(ε-caprolactone) (11000)-polyethylene glycol (5000) with entrapped curcumin were prepared according to the nanopercipitation-solvent displacement method. […] Then, the mice were inoculated subcutaneously on both flanks with […] cells (2×10^6 each). The treatment was resumed one day after tumor implantation and continued daily until the end of the study.

lung cancer = conditions: pre-clinical models of lung cancer; cited from earlier work
[4] = Drug levels in lungs and plasma after inhalation vs oral gavage; assay type: in vivo, mice
Source text: The oral dose was 23 times higher than the inhalational dose.

NF-κB [5] = assay: NF-κB activation in cultured cells by Electrophoretic Mobility Shift Assay (EMSA); assay type: cell-based, human; conditions: cultured A549 cells; 1-2× its IC50 concentration for 6 h
NF-κB [6] = assay: NF-κB activation in orthotopic xenografts by immunohistochemistry; assay type: in vivo, nude mice; conditions: lung tissue of orthotopic A549 xenografts, PS V treatment as in Example 1
Description: We evaluated the effect of PS V on the activation of NF-κB, the master regulator of inflammation, in cultured A549 human lung cancer cells as well as in human lung cancer xenografts from the same cells.
We established orthotopic xenografts in nude mice as described in Example 1. Following treatment of the mice with PS V in a similar manner, lung tissue was evaluated by immunohistochemistry, following standard protocols. We used an antibody that assesses activation of NF-κB by phosphorylation (Cell Signaling, Danvers, Mass.). FIG. 10 provides inhibitory effect of PS V on the activation of NF-κB.

human cancer cells = assay: Cytotoxicity to human cancer cells; assay type: cell-based; conditions: intact PS V vs its three metabolites
[7] = mouse, in vivo, inhaled or intranasal
Description: as §1

CCOP(=O)(OCC)OCCCCNC(=O)C(C)c1ccc(CC(C)C)cc1 (stereo not drawn) [phospho-ibuprofen amide IV, phospho-ibuprofen amide]
aerosolization when added to smoking tobacco [1]: aerosolized successfully

CC1=C(CC(=O)O)c2cc(F)ccc2/C1=C\c1ccc([S+](C)[O-])cc1 (stereo not drawn) [Sulindac, sulindac]
Tmax ([2]; lung): 0 h
Tmax ([2]; plasma): 0 h

CCOP(=O)(OCC)OCCCCOC(=O)c1ccccc1OC(C)=O [phospho-aspirin 119, phospho-aspirin]
effect on inflammation (inflammation): eliminated or greatly reduced inflammation

C#Cc1cccc(Nc2ncnc3cc(OCCOC)c(OCCOC)cc23)c1 [erlotinib, reference compound]
reduced tumor volume compared to controls [3]: 74%

COc1cc(/C=C/C(=O)CC(=O)/C=C/c2ccc(O)c(OC)c2)ccc1O [curcumin, reference compound]
inhibition of tumor growth (in words) (A549 xenografts): ineffective
reduction in tumor weight (A549 xenografts): not in the curcumin-treated group
efficacy as a single agent (lung cancer): < 30%

CCOP(=O)(OCC)OCCCCOC(=O)CC1=C(C)/C(=C/c2ccc([S+](C)[O-])cc2)c2ccc(F)cc21 (stereo not drawn) [PS V, phospho-sulindac]
total drug levels (PS V plus its metabolites) in lungs ([4]; inhalation 6.5 mg/kg compared to oral 150 mg/kg): significantly higher
level of intact PS V in lungs ([4]; inhalational 6.5 mg/kg body weight): > 20 nmol/g
level of intact PS V in lungs ([4]; oral 150 mg/kg body weight): < 2 nmol/g
PS levels in plasma ([4]; plasma): undetectable
inhibition of tumor growth (in words) (A549 xenografts): small inhibition of tumor growth
average tumor volume at the end of the study (A549 xenografts; day 36, PS V 200 mg/kg/d, curcumin 500 mg/kg/d, control 521±76 mm^3): 419±36 mm^3
reduction in tumor weight (A549 xenografts): 27%
reduced tumor volume compared to controls [3]: 49%
NF-κB activation (EMSA) (NF-κB [5]): suppressed NF-κB activation
activation of NF-κB (phosphorylation, immunohistochemistry) (NF-κB [6]): suppresses the activation of NF-κB
cytotoxicity compared with sulindac, sulindac sulfide XI and sulindac sulfone XII (human cancer cells): more cytotoxic
effect on inflammation (inflammation): eliminated or greatly reduced inflammation

CC1=C(CC(=O)O)c2cc(F)ccc2/C1=C\c1ccc(S(C)(=O)=O)cc1 [Sulindac sulfone XII, sulindac sulfone]
Cmax [7]: 4.6 nmol/g
